# Measured values from patent publication US10369123B2, “Perk activator for the treatment of neurodegenerative diseases” (DEUTSCHES ZENTRUM FÜR NEURODEGENERATIVE ERKRANKUNGEN E.V. …, priority 2014, dated 2019).
# Entries after “also recorded” stand apart in the source; their conditions may differ.
# Experiments:
# [1] = tested on: LUHMES neurons overexpressing 4R-tau; assay: MTT assay, LUHMES neurons overexpressing 4R-tau; format: cell-based, human; settings: lentiviral 4R-tau overexpression 10 days, co-administration of PERK modulator
# Method: Nunc™ Nunclon™ Delta 6-well (for protein and mRNA) or 48-well (for cell assays) plates (Thermo Fisher Scientific, Waltham, Mass., USA) were coated with 100 μg/ml poly-L-lysine (Sigma-Aldrich, St. Louis, Mo., USA) and 5 μg/ml fibronectin (Sigma-Aldrich). LUHMES (Lund Human Mesencephalic) cells, derived from human embryonic ventral mesencephalic cells by conditional immortalization (Tet-off v-myc over-expression) were seeded out in a concentration of 130,000 cells/cm^2 to achieve a confluence of 50%. […]
# Concentrated lentiviral particles were titrated by transducing LUHMES cells with different dilutions at 6 hours after initiating differentiation. The lowest dilution at which at least 90% of cells expressed the transgene (as determined by immunohistochemistry of the cells fixed on day 2 post differentiation) was chosen for subsequent experiments. […]
# Thiazolyl Blue Tetrazolium […] (Sigma Aldrich) was dissolved in sterile PBS to a concentration of 5 mg/ml. […] 100 μl from each well were transferred to a new 96-well plate and the absorbance was read with the FLUOstar Omega (BMG Labtech) platereader at a wavelength of 590 nm (reference wave length 630 nm). The data was analyzed using the MARS Data Analysis Software (BMG Labtech) and Prism 6.
# tau = assay: Western blot of tau conformation and phosphorylation, annonacin model; format: cell-based, human; settings: annonacin 25 nM + PERK activator, 48 h
# Method: (§1) Nunc™ Nunclon™ Delta 6-well (for protein and mRNA) or 48-well (for cell assays) plates (Thermo Fisher Scientific, Waltham, Mass., USA) were coated with 100 μg/ml poly-L-lysine (Sigma-Aldrich, St. Louis, Mo., USA) and 5 μg/ml fibronectin (Sigma-Aldrich). LUHMES (Lund Human Mesencephalic) cells, derived from human embryonic ventral mesencephalic cells by conditional immortalization (Tet-off v-myc over-expression) were seeded out in a concentration of 130,000 cells/cm^2 to achieve a confluence of 50%. They were then differentiated for 8 days in a medium of DMEM/F12 (Sigma-Aldrich), 1 μg/ml tetracycline, […] and 490 μg/ml dbcAMP into post-mitotic neurons with a dopaminergic phenotype (Lotharius et al. 2005).
# For all experiments with annonacin, the medium was replaced during the intoxication period with new medium containing glucose levels reduced to 250 μM, i.e. the physiological concentration in the human brain.
# Protein was extracted by scraping the cells from the culture plate with Mammalian Protein Extraction Reagent (M-PER, Thermo Fisher Scientific) and 1× cOmplete Protease Inhibitor Cocktail Tablets (Hoffmann-La Roche, Basel, Switzerland) and 1× PhosSTOP Phosphatase Inhibitor Cocktail Tablets (Hoffmann-La Roche). For pNRF2 blots, cells were extracted with 2% SDS tris-buffer instead of M-PER in order to obtain whole cell extracts and not to lose the nuclear fraction. The protein solution was frozen at −80° C., immediately after retrieval, for a minimum of two hours. The solution was then thawed on ice, vortexed, centrifuged at 5000 g for 15 min at 4° C. and the supernatant retrieved. Protein concentrations were determined using the BCA kit (Thermo Fisher Scientific) by heating the samples at 60° C. for 30 min and measuring the absorption on the NanoDrop 2000c Spectrophotometer (Thermo Fisher Scientific).
# 20 μg of protein (unless indicated otherwise) were adjusted to equal concentrations between samples by dilution with M-PER and subsequently heated at 95° C. for 5 minutes with Roti®-Load 1 (Carl Roth). SDS-PAGE was performed using Any kD™ Mini-PROTEAN® TGX™ Gels (BioRad, Berkeley, Calif., USA) in a tris-glycine running buffer. The protein was blotted onto PVDF membrane (BioRad) at 70 V for 65 minutes on ice. The membrane was blocked with 1× Roti®-Block solution (Carl Roth) for 1 h and then incubated at 4° C. overnight under gentle shaking with the primary antibody (see Table 5) in TBS with 5% BSA (Cell Signaling Technology) and 0.05% TWEEN (Sigma-Aldrich).
# The membranes were then washed and incubated with the species specific HRP-bound secondary antibody (Vector Laboratories, Burlingame, Calif., USA) at 1:2500 in 1× Roti®-Block solution for 2 h, followed by further washing and exposure to Clarity Western ECL Substrate (BioRad) or, in the case of MC1 and 4R-tau, to Amersham™ ECL™ Prime (GE Healthcare). Chemiluminescence was detected with the Gel Doc™ XR System (BioRad) and analyzed with Image Lab™ software (BioRad), followed by graphical and statistical analysis with Prism 6 (GraphPad Software).
# [2] = tested on: 4R-tau and 3R-tau isoforms; assay: Western blot of 3R-/4R-tau isoforms, annonacin model; format: cell-based, human; settings: annonacin 25 nM + PERK activator, 48 h
# Method: as §1, with “2005). […]” for “2005).”
# Protein was extracted by scraping the cells from the culture plate with Mammalian Protein Extraction Reagent (M-PER, Thermo Fisher Scientific) and 1× cOmplete Protease Inhibitor Cocktail Tablets (Hoffmann-La Roche, Basel, Switzerland) and 1× PhosSTOP Phosphatase Inhibitor Cocktail Tablets (Hoffmann-La Roche). […] Protein concentrations were determined using the BCA kit (Thermo Fisher Scientific) by heating the samples at 60° C. for 30 min and measuring the absorption on the NanoDrop 2000c Spectrophotometer (Thermo Fisher Scientific). […]
# [3] = tested on: P301S tau transgenic mice; assay: Rotarod test; format: in vivo, mouse; settings: 2 mg/kg i.p. once daily for 6 weeks, 23 weeks of age, vs saline
# Method: All animal work was conducted either on CR57BL/6 mice, obtained from Charles River Laboratories, Wilmington, Mass., USA, or on homozygous transgenic mice overexpressing human tau with the P301S mutation on a C57BL/6 background, originally developed by Michel Goedert (Xu et al. 2014), obtained by own breeding. Animals were kept at 23±1° C. under standard 12 h light-dark cycle with free access to food and water. They were handled according to the EU Council Directive 2010/63/EU, the Guide for the Care and Use of Laboratory Animals (National Research Council 2011) and the guidelines of the local institutional committee. The experiments were authorized by the local authority “Regierung von Oberbayern” under application number 55.2-1-54-2532-165-13.
# 5 mg of the PA compound CCT020312 (EMD Millipore, Billerica, Mass., USA) was first dissolved in 100 μl sterile DMSO (AppliChem, Darmstadt, Germany) and then diluted in sterile saline (B. Braun Medical, Melsungen, Germany) to achieve a stock solution of […].
# For the efficacy trial in the late disease stage (Xu et al. 2014), P301S mice and wild type littermates received once daily i.p. injections of 2 mg/kg CCT020312 or saline from 17 to 22 weeks of age (n=12 for CCT020312 treated P301S mice, n=9 for other groups); they were analyzed with the Rotarod test in the 23rd week of age. […]
compound,measurement,setting,value
"CCN(CC)CCC(=O)N1N=C(c2c(-c3ccccc3)c3cc(Br)ccc3[nH]c2=O)CC1c1ccc(Br)cc1 (stereo not shown) [CCT020312, 6-bromo-3-[5-(4-bromo-phenyl)-1-(3-diethylamino-propionyl)-4,5-dihydro-1H-pyrazol-3-yl]-4-phenyl-1H-quinolin-2-one]",4R-specific toxicity in MTT assay,[1],reduced significantly
same,total tau protein (HT7),tau,not altered
same,AD2 (p-Ser-396 and 404) tau phosphorylation,tau; vs annonacin alone,significantly reduced
same,CP13 (p-Ser-202) tau phosphorylation,tau; vs annonacin alone,significantly reduced
same,MC1 pathological tau conformation,tau; vs annonacin alone,reversed; also recorded: averted
same,4R-tau protein amount,[2],reduced
same,Rotarod performance (latency to fall),[3],significantly improved; also recorded: increased performance
